Assays:
Assay type in all cases: in vivo
[1] = test system: ducksalad (Heteranthera limosa); test: Test B flooded paddy test, plant response rating 0-100; conditions: Flood, 250 g ai/ha; scale 0 to 100 (0 no effect, 100 complete control); 13 to 15 days
Description: (§1) At time of treatment, test pots were flooded to 3 cm above the soil surface, treated by application of test compounds directly to the paddy water, and then maintained at that water depth for the duration of the test. Treated plants and controls were maintained in a greenhouse for 13 to 15 days, after which time all species were compared to controls and visually evaluated. […] A dash (-) response means no test result.

[2] = test system: sedge, umbrella (small-flower umbrella sedge, Cyperus difformis); test: as above; conditions: Flood, 250 g ai/ha; scale 0 to 100 (0 no effect, 100 complete control); 13 to 15 days
Description: as §1

[3] = test system: barnyardgrass (Echinochloa crus-galli); test: as above; conditions: Flood, 250 g ai/ha; scale 0 to 100 (0 no effect, 100 complete control); 13 to 15 days
Description: as §1

rice (Oryza sativa) = test: as above; conditions: Flood, 250 g ai/ha; scale 0 to 100 (0 no effect, 100 complete control); 13 to 15 days
Description: as §1

[4] = test system: morningglory (Ipomoea spp.); test: Test A pre-/postemergence greenhouse herbicide test, visual injury rating 0-100
Method in brief: (§2)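 Test chemicals in a non-phytotoxic solvent/surfactant blend were sprayed onto loam–sand soil after planting (pre) and onto 2–10 cm seedlings at one to two leaves (post). Greenhouse hold approx. 10 days; injury then judged visually.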

[5] = test system: giant foxtail (Setaria faberii); test: as above
Method in brief: as §2

[6] = test system: barnyardgrass (Echinochloa crus-galli); test: as above
Method in brief: as §2

[7] = test system: wheat (Triticum aestivum); test: as above
Method in brief: as §2

[8] = test system: velvetleaf (Abutilon theophrasti); test: as above
Method in brief: as §2

[9] = test system: large (Lg) crabgrass (Digitaria sanguinalis); test: as above
Method in brief: as §2

corn (Zea mays) = test: as above
Method in brief: as §2

[10] = test system: pigweed (Amaranthus retroflexus); test: as above
Method in brief: as §2

Structure (SMILES)	Plant response rating, Ducksalad [1]	Plant response rating, Sedge, Umbrella [2]	Plant response rating, Barnyardgrass [3]	Plant response rating, Rice (rice (Oryza sativa))	Plant response rating (0 to 100 scale), Morningglory ([4]; Postemergence, 125 g ai/ha)	Plant response rating (0 to 100 scale), Morningglory ([4]; Postemergence, 500 g ai/ha)	Morningglory plant response rating (0 = no effect, 100 = complete control) ([4]; Preemergence, 125 g ai/ha)	Plant response rating (0 to 100 scale), Morningglory ([4]; Preemergence, 500 g ai/ha)	Plant response rating (0 to 100 scale), Foxtail, Giant ([5]; Postemergence, 125 g ai/ha)	Plant response rating (0 to 100 scale), Foxtail, Giant ([5]; Postemergence, 500 g ai/ha)	Foxtail, Giant plant response rating (0 = no effect, 100 = complete control) ([5]; Preemergence, 125 g ai/ha)	Plant response rating (0 to 100 scale), Foxtail, Giant ([5]; Preemergence, 500 g ai/ha)	Plant response rating (0 to 100 scale), Barnyardgrass ([6]; Postemergence, 125 g ai/ha)	Plant response rating (0 to 100 scale), Barnyardgrass ([6]; Postemergence, 500 g ai/ha)	Barnyardgrass plant response rating (0 = no effect, 100 = complete control) ([6]; Preemergence, 125 g ai/ha)	Plant response rating (0 to 100 scale), Barnyardgrass ([6]; Preemergence, 500 g ai/ha)	Plant response rating (0 to 100 scale), Wheat ([7]; Postemergence, 125 g ai/ha)	Plant response rating (0 to 100 scale), Wheat ([7]; Postemergence, 500 g ai/ha)	Wheat plant response rating (0 = no effect, 100 = complete control) ([7]; Preemergence, 125 g ai/ha)	Plant response rating (0 to 100 scale), Wheat ([7]; Preemergence, 500 g ai/ha)	also measured
CCn1cc(C(=O)c2cccs2)c(-c2cc(F)cc(Cl)c2)n1 [Compound 24]	0	0	0	0	0	10	0	0	0	10	0	0	0	10	0	0	0	0	0	0	Plant response rating (0 to 100 scale), Velvetleaf ([8]; Postemergence, 125 g ai/ha): 40; Plant response rating (0 to 100 scale), Velvetleaf ([8]; Postemergence, 500 g ai/ha): 90; Velvetleaf plant response rating (0 = no effect, 100 = complete control) ([8]; Preemergence, 125 g ai/ha): 0; Plant response rating (0 to 100 scale), Velvetleaf ([8]; Preemergence, 500 g ai/ha): 0; Plant response rating (0 to 100 scale), Crabgrass, Large ([9]; Postemergence, 125 g ai/ha): 10; Plant response rating (0 to 100 scale), Crabgrass, Large ([9]; Postemergence, 500 g ai/ha): 20; Crabgrass, Large plant response rating (0 = no effect, 100 = complete control) ([9]; Preemergence, 125 g ai/ha): 0; Plant response rating (0 to 100 scale), Crabgrass, Large ([9]; Preemergence, 500 g ai/ha): 20; Plant response rating (0 to 100 scale), Corn (corn (Zea mays); Postemergence, 125 g ai/ha): 0; Plant response rating (0 to 100 scale), Corn (corn (Zea mays); Postemergence, 500 g ai/ha): 0; Corn plant response rating (0 = no effect, 100 = complete control) (corn (Zea mays); Preemergence, 125 g ai/ha): 0; Plant response rating (0 to 100 scale), Corn (corn (Zea mays); Preemergence, 500 g ai/ha): 0; Plant response rating (0 to 100 scale), Pigweed ([10]; Postemergence, 125 g ai/ha): 80; Plant response rating (0 to 100 scale), Pigweed ([10]; Postemergence, 500 g ai/ha): 100; Pigweed plant response rating (0 = no effect, 100 = complete control) ([10]; Preemergence, 125 g ai/ha): 60; Plant response rating (0 to 100 scale), Pigweed ([10]; Preemergence, 500 g ai/ha): 80
Cn1cc(C(=O)c2cccnc2)c(-c2cc(Cl)cc(Cl)c2)n1 [Compound 6]	0	0	0	0	0	0	0	0	0	0	0	0	0	0	0	0	0	0	0	0	Plant response rating (0 to 100 scale), Velvetleaf ([8]; Postemergence, 125 g ai/ha): 10; Plant response rating (0 to 100 scale), Velvetleaf ([8]; Postemergence, 500 g ai/ha): 10; Velvetleaf plant response rating (0 = no effect, 100 = complete control) ([8]; Preemergence, 125 g ai/ha): 0; Plant response rating (0 to 100 scale), Velvetleaf ([8]; Preemergence, 500 g ai/ha): 20; Plant response rating (0 to 100 scale), Crabgrass, Large ([9]; Postemergence, 125 g ai/ha): 0; Plant response rating (0 to 100 scale), Crabgrass, Large ([9]; Postemergence, 500 g ai/ha): 0; Crabgrass, Large plant response rating (0 = no effect, 100 = complete control) ([9]; Preemergence, 125 g ai/ha): 0; Plant response rating (0 to 100 scale), Crabgrass, Large ([9]; Preemergence, 500 g ai/ha): 0; Plant response rating (0 to 100 scale), Corn (corn (Zea mays); Postemergence, 125 g ai/ha): 0; Plant response rating (0 to 100 scale), Corn (corn (Zea mays); Postemergence, 500 g ai/ha): 0; Corn plant response rating (0 = no effect, 100 = complete control) (corn (Zea mays); Preemergence, 125 g ai/ha): 0; Plant response rating (0 to 100 scale), Corn (corn (Zea mays); Preemergence, 500 g ai/ha): 0; Plant response rating (0 to 100 scale), Pigweed ([10]; Postemergence, 125 g ai/ha): 0; Plant response rating (0 to 100 scale), Pigweed ([10]; Postemergence, 500 g ai/ha): 30; Pigweed plant response rating (0 = no effect, 100 = complete control) ([10]; Preemergence, 125 g ai/ha): 0; Plant response rating (0 to 100 scale), Pigweed ([10]; Preemergence, 500 g ai/ha): 20

Source: patent US10167262B2, “Herbicidal substituted 3-arylpyrazoles” (FMC CORPORATION, priority 2014, dated 2019)
